In BindingDB's records for doi:10.1021/cb300729y (University of Dundee, 2013):
Blank lines part the entries; values can stand above or below the compound they belong to.

Assays:
[1] = biological target: T1, Ephrin type-B receptor 3 (Homo sapiens, UniProt P54753); test: Kinase Assay
T1 sequence (P54753 whole entry): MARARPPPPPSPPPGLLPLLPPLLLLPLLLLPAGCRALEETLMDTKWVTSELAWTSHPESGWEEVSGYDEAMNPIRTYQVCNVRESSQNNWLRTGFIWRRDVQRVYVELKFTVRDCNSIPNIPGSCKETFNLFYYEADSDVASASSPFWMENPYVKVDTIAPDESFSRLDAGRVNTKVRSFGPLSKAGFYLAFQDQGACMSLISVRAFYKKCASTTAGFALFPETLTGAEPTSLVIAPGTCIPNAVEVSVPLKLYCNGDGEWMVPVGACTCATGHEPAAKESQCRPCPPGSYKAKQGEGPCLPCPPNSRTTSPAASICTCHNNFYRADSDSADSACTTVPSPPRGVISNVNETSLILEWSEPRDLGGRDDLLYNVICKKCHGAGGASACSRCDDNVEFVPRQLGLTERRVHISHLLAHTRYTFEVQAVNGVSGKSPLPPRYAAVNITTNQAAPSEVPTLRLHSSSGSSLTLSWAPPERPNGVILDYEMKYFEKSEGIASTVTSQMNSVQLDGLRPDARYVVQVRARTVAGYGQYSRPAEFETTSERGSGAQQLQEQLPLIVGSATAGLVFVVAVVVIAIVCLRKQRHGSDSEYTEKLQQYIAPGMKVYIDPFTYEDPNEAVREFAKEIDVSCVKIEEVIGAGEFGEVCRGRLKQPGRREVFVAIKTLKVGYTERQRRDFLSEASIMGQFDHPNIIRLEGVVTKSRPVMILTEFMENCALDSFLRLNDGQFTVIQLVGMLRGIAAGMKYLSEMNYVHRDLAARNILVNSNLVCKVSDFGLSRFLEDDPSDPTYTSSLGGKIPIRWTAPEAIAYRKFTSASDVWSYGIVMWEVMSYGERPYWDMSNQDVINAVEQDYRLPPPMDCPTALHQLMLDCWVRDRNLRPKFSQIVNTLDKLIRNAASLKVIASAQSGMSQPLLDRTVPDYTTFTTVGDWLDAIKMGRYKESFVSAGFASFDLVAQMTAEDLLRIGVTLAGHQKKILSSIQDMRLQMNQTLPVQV
Procedure: (§1) Selected compounds were screened against a panel of mammalian kinases. Compounds were supplied in DMSO and screened in duplicates at 100 uM concentration using a radioactive (33P-ATP) filter-binding-assay.

[2] = biological target: Fibroblast growth factor receptor 1 (Homo sapiens, UniProt P11362); test: Kinase Assay
Fibroblast growth factor receptor 1, sequence (P11362 whole entry): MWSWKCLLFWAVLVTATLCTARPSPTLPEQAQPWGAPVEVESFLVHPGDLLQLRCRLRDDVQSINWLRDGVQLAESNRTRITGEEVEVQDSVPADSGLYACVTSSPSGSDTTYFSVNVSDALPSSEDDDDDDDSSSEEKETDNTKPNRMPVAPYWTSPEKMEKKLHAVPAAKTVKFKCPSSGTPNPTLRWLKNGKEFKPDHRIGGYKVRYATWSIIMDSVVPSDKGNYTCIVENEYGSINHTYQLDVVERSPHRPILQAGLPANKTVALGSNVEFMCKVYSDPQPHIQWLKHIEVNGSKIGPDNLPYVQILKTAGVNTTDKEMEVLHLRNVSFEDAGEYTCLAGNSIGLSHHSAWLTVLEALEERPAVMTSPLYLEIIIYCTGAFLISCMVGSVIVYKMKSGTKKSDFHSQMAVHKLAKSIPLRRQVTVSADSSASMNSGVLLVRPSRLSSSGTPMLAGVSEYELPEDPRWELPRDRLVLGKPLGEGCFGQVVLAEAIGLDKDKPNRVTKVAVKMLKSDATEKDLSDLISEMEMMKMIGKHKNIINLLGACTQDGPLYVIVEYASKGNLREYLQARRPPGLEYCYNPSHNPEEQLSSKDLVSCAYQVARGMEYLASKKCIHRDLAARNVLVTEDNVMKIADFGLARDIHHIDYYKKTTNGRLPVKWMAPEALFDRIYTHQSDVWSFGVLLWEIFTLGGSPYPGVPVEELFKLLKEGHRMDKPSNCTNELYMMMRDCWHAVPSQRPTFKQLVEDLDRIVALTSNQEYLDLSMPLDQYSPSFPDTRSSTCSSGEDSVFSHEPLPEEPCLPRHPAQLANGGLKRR
Procedure: as §1

[3] = biological target: MAP kinase-activated protein kinase 3 (Homo sapiens, UniProt Q16644); test: Kinase Assay
MAP kinase-activated protein kinase 3, sequence (Q16644 whole entry): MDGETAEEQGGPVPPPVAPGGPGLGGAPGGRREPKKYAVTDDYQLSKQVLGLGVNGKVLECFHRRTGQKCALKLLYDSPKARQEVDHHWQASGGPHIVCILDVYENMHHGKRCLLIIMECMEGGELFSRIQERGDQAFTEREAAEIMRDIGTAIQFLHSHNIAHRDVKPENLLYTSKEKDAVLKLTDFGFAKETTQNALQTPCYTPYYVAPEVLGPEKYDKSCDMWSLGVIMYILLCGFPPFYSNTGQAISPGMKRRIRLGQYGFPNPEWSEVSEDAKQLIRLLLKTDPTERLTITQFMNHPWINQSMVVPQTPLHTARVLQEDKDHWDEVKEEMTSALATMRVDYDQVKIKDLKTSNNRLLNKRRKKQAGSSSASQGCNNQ
Procedure: as §1

[4] = biological target: Ribosomal protein S6 kinase alpha-3 (Homo sapiens, UniProt P51812); test: Kinase Assay
Procedure: as §1

[5] = biological target: Proto-oncogene tyrosine-protein kinase Src (Gallus gallus, UniProt P00523); test: Kinase Assay
Procedure: as §1

[6] = biological target: SRSF protein kinase 1 (Homo sapiens, UniProt Q96SB4); test: Kinase Assay
Procedure: as §1

[7] = biological target: Casein kinase II subunit alpha (Homo sapiens, UniProt P68400); test: Kinase Assay
Casein kinase II subunit alpha, sequence (P68400 whole entry): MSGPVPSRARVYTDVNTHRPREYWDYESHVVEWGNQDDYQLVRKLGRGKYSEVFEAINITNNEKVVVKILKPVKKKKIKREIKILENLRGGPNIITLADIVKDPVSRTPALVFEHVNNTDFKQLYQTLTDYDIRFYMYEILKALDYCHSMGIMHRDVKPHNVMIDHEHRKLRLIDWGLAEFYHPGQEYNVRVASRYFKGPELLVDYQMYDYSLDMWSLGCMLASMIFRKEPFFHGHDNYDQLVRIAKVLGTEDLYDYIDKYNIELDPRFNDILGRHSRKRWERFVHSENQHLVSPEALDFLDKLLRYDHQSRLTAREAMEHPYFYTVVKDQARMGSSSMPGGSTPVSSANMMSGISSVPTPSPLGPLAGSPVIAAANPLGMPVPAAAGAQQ
Procedure: as §1

[8] = biological target: Insulin-like growth factor 1 receptor (Homo sapiens, UniProt P08069); test: Kinase Assay
Insulin-like growth factor 1 receptor, sequence (P08069 31-736 limits assumed): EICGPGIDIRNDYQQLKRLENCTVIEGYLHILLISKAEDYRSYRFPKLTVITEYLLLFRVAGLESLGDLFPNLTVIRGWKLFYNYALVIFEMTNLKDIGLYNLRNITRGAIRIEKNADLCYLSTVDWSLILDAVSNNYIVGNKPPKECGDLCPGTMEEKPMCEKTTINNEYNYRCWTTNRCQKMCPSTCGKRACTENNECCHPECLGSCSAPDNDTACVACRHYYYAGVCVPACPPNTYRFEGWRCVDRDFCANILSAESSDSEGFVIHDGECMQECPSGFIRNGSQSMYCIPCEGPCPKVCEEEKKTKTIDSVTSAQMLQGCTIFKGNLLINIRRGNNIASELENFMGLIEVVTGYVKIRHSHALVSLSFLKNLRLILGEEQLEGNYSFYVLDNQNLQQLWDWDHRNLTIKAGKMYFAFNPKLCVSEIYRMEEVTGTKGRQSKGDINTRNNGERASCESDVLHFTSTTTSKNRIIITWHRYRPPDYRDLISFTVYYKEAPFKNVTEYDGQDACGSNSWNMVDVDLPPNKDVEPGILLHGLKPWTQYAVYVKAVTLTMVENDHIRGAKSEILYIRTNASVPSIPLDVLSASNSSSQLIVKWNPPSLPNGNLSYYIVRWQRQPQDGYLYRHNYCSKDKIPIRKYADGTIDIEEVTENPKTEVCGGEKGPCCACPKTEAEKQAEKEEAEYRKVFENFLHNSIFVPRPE
Insulin-like growth factor 1 receptor, sequence (P08069 741-1367 limits assumed): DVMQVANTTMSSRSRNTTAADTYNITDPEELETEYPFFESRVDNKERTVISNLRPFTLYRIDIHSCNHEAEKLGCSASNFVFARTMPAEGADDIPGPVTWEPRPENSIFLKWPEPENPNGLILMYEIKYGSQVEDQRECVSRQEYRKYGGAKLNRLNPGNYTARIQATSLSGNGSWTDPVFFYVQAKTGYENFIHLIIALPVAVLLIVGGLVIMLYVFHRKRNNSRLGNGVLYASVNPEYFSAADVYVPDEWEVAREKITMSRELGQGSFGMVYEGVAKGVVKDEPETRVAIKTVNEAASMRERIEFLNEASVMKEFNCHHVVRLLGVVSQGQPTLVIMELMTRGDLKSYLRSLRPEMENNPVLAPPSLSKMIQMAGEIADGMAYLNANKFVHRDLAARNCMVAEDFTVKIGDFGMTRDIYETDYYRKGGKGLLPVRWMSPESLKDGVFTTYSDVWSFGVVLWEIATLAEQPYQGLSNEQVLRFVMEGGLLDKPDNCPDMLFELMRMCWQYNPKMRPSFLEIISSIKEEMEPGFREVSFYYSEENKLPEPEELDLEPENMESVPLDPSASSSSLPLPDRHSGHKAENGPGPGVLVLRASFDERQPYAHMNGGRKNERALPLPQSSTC
Procedure: as §1

[9] = biological target: Serine/threonine-protein kinase Chk2 (Homo sapiens, UniProt O96017); test: Kinase Assay
Procedure: as §1

[10] = biological target: Vascular endothelial growth factor receptor 2 (Homo sapiens, UniProt P35968); test: Kinase Assay
Vascular endothelial growth factor receptor 2, sequence (P35968 whole entry): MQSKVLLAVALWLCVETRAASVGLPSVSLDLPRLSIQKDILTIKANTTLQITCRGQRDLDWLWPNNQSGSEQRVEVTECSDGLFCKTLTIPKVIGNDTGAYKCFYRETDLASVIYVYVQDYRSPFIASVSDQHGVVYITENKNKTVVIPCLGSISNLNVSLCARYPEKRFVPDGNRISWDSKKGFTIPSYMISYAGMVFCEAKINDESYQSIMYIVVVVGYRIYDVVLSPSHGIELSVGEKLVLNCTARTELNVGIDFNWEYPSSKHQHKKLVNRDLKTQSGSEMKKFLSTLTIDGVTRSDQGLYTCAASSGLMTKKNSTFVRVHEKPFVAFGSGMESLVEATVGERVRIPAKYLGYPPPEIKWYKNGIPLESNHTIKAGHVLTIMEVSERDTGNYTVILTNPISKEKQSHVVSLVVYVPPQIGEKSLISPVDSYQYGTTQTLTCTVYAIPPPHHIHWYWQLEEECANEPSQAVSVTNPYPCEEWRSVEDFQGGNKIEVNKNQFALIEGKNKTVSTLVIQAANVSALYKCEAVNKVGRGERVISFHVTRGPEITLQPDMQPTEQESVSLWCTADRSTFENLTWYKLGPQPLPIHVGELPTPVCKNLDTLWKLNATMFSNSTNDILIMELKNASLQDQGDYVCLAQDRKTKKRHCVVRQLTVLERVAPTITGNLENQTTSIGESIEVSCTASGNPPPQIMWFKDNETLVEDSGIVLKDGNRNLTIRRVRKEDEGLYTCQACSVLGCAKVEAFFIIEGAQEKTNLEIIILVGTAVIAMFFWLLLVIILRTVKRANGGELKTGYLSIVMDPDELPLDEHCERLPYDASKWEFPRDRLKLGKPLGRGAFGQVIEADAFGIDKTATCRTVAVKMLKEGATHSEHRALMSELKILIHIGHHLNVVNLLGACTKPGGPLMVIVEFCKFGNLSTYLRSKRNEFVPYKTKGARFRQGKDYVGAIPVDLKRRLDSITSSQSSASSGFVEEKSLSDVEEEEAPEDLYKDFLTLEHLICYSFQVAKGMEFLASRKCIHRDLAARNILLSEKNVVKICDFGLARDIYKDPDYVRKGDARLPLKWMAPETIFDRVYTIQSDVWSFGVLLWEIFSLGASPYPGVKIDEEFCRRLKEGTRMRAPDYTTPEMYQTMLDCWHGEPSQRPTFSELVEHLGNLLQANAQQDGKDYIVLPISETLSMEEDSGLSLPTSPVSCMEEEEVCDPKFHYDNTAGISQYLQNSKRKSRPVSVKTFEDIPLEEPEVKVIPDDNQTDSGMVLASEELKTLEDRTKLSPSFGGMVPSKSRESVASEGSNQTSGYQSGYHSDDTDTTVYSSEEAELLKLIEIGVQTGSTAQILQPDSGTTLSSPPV
Procedure: as §1

[11] = biological target: T2, Mitogen-activated protein kinase kinase kinase 7 (Homo sapiens, UniProt O43318); test: Kinase Assay
T2 sequence (O43318 whole entry): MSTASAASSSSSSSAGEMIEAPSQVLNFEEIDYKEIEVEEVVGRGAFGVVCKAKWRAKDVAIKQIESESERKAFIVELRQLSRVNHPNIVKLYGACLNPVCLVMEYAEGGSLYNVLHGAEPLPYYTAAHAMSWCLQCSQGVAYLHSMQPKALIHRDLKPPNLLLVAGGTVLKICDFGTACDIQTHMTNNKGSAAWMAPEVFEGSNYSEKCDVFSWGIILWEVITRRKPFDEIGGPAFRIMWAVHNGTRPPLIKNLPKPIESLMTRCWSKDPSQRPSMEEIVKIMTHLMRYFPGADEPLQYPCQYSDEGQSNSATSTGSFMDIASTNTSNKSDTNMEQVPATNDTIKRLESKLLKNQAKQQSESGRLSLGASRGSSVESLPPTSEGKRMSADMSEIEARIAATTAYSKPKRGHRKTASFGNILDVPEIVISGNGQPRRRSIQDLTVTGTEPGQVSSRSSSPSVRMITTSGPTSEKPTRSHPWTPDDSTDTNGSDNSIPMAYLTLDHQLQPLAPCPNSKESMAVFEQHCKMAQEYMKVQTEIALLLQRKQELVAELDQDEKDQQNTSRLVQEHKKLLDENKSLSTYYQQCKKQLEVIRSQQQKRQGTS
Procedure: as §1

[12] = biological target: Tyrosine-protein kinase Yes (Homo sapiens, UniProt P07947); test: Kinase Assay
Procedure: as §1

[13] = biological target: Germinal center kinase MAP4K2 (Homo sapiens); test: Selected compounds were screened against a panel of mammalian kinases. Compounds were supplied in DMSO and screened in duplicates at 100 uM concentration using a radioactive (33P-ATP) filter-binding-assay.
[14] = biological target: Serine/threonine-protein kinase pim-3 (Homo sapiens, UniProt Q86V86); test: Kinase Assay
Procedure: as §1

[15] = biological target: Serine/threonine-protein kinase pim-1 (Homo sapiens, UniProt P11309); test: Kinase Assay
Procedure: as §1

[16] = biological target: Glycogen synthase kinase-3 beta (Homo sapiens, UniProt P49841); test: Kinase Assay
Glycogen synthase kinase-3 beta, sequence (P49841 whole entry): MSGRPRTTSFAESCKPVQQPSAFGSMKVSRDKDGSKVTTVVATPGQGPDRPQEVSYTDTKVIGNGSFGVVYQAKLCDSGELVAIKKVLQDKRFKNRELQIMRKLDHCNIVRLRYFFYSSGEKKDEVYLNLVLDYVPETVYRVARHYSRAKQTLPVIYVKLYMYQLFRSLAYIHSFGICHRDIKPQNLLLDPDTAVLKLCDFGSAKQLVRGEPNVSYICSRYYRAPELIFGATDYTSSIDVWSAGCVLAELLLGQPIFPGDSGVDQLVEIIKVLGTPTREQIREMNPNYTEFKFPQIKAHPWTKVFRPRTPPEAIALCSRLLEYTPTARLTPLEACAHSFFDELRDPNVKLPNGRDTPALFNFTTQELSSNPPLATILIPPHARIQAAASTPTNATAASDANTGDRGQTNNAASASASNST
Procedure: as §1

[17] = biological target: T3, Serine/threonine-protein kinase Sgk1 (Homo sapiens, UniProt O00141); test: Kinase Assay
T3 sequence (O00141 whole entry): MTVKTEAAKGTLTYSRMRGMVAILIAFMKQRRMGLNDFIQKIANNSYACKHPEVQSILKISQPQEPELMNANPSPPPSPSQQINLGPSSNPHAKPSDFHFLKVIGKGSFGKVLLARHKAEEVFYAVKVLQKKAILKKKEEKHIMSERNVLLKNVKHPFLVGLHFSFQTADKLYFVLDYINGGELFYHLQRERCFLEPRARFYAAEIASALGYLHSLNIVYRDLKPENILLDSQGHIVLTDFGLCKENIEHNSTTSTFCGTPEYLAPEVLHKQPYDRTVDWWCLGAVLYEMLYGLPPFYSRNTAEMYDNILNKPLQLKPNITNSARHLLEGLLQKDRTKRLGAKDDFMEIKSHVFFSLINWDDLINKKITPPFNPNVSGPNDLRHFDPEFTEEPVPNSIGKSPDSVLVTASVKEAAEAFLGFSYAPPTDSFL
Procedure: as §1

[18] = biological target: Dual specificity protein kinase CLK2 (Homo sapiens, UniProt P49760); test: Kinase Assay
Procedure: as §1

[19] = biological target: T4, Aurora kinase A (Homo sapiens, UniProt O14965); test: Kinase Assay
T4 sequence (O14965 whole entry): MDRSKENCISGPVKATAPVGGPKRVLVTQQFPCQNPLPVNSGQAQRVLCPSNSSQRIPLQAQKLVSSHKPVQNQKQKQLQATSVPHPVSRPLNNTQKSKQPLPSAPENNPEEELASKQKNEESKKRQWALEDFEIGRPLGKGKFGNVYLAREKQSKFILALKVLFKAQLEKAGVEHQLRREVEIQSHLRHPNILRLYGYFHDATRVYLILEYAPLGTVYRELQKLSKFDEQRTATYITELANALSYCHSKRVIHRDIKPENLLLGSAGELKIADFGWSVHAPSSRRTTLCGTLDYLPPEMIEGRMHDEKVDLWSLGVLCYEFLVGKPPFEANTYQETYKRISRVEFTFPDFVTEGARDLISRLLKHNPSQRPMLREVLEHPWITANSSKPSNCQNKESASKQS
Procedure: as §1

[20] = biological target: Cyclin-dependent kinase 2 (Homo sapiens, UniProt P24941); test: Kinase Assay
Procedure: as §1

IC50 [1]: 158 µM
IC50 [2]: 469 µM
Compound: CC(C)(C)Nc1c(C2CC2)[nH]c2ncnn12 [Kinase inhibitor, D1]

IC50 [3]: 21 µM
IC50 [4]: 196 µM
IC50 [5]: 97 µM
IC50 [6]: 114 µM
IC50 [7]: 18 µM
Compound: CC1CN(c2nc3ccccn3c(=O)c2N)CC(C)O1 (stereo unspecified) [Kinase inhibitor, A1]

IC50 [8]: 25 µM
IC50 [5]: 20 µM
IC50 [9]: 17 µM
IC50 [10]: 39 µM
IC50 [11]: 11 µM
IC50 [12]: 21 µM
IC50 [13]: 6 µM
Compound: Nc1nc2cnc(-c3ccccc3)cn2n1 [Kinase inhibitor, B1]

IC50 [14]: 14 µM
IC50 [15]: 22 µM
Compound: O=c1cc(-c2ccccc2F)nc2[nH]ccn12 [Kinase inhibitor, F3]

IC50 [16]: 25 µM
IC50 [17]: 110 µM
Compound: COc1ccc(-c2cc3c(=O)[nH]cnc3s2)cc1OC [Kinase inhibitor, C2]

IC50 [18]: 25 µM
IC50 [19]: 188 µM
IC50 [8]: 47 µM
IC50 [2]: 252 µM
IC50 [11]: 24 µM
IC50 [20]: 26 µM
IC50 [7]: 131 µM
IC50 [13]: 4 µM
Compound: Nc1cnc2c(-c3c(F)cccc3F)cccn2c1=O [Kinase inhibitor, A2]
